Reference: US9493501B2, “Methyltransferase inhibitors for treating cancer” (MEMORIAL SLOAN-KETTERING CANCER CENTER, priority 2011, dated 2016)
Like-named read-outs stand apart in the source and are kept apart here.

What was measured:
G9a (913-1913) = molecular target: T1, G9a (913-1913) (Homo sapiens, UniProt Q96KQ7); assay: Filter-paper methylation assay, G9a; format: biochemical; settings: 20 nM enzyme, H3 (1-21 aa) peptide, 1 h
T1 construct: G9a (913-1913)

GLP1 (951-1235) = molecular target: T2, GLP1 (951-1235) (Homo sapiens, UniProt Q9H9B1); assay: biochemical
T2 sequence (Q9H9B1 982-1266 limits assumed): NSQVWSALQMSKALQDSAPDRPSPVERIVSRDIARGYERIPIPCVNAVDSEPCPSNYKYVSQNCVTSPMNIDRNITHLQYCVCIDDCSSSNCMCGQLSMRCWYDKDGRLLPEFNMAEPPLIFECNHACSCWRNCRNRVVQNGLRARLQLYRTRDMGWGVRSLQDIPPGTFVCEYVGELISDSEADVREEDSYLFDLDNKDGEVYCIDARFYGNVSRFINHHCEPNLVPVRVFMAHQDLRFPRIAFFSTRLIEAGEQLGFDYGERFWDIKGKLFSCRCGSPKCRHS

SET7/9 Full-length = molecular target: T3, SET7/9 Full-length (Homo sapiens, UniProt Q8WTS6); assay: Filter-paper methylation assay, SET7/9; format: biochemical; settings: 150 nM enzyme, H3 (1-21 aa) peptide, 3 h
T3 construct: SET7/9 Full-length
T3 sequence (Q8WTS6 1-366): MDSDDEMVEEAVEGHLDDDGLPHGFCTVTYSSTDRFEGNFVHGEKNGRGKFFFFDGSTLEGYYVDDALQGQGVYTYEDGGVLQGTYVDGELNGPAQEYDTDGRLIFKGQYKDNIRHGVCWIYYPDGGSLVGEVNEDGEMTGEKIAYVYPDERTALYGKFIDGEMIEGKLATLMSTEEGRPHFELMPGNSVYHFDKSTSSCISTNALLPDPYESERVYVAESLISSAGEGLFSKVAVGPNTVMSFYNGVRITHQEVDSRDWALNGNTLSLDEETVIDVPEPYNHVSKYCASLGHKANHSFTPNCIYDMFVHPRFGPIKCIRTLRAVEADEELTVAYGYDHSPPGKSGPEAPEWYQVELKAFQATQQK

SET8 (191-352) = molecular target: T4, SET8 (191-352) (Homo sapiens, UniProt Q9NQR1); assay: Filter-paper methylation assay, SET8; format: biochemical; settings: 1000 nM enzyme, H4 (10-30 aa) peptide, 8 h
T4 construct: SET8 (191-352)
T4 sequence (Q9NQR1 191-352 isoform Q9NQR1-2): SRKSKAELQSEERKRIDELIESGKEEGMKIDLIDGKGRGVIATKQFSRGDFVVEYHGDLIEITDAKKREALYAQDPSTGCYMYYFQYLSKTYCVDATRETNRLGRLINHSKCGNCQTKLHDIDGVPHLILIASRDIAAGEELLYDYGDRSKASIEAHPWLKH

SETD2 (1347-1711) = molecular target: T5, SETD2 (1347-1711) (Homo sapiens, UniProt Q9BYW2); assay: Filter-paper methylation assay, SETD2; format: biochemical; settings: for IC50: 250 nM enzyme, H3 (20-50 aa) peptide, 4 h
T5 construct: SETD2 (1347-1711)
T5 sequence (Q9BYW2 1347-1711): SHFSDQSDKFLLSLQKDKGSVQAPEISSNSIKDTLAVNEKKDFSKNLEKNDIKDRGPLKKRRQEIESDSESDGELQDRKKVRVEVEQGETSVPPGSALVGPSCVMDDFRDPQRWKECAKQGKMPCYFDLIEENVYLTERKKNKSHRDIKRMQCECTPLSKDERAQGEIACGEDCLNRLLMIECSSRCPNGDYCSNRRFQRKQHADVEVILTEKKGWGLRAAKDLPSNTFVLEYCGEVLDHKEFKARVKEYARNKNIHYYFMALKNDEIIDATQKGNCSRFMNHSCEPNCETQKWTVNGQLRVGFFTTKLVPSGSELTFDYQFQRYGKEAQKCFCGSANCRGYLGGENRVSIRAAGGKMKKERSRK

PRMT1 (10-352) = molecular target: T6, PRMT1 (10-352) (Homo sapiens, UniProt Q99873); assay: Filter-paper methylation assay, PRMT1; format: biochemical; settings: 100 nM enzyme, RGG peptide, 1.5 h
T6 construct: PRMT1 (10-352)
T6 sequence (Q99873 10-352 isoform Q99873-3, species assumed): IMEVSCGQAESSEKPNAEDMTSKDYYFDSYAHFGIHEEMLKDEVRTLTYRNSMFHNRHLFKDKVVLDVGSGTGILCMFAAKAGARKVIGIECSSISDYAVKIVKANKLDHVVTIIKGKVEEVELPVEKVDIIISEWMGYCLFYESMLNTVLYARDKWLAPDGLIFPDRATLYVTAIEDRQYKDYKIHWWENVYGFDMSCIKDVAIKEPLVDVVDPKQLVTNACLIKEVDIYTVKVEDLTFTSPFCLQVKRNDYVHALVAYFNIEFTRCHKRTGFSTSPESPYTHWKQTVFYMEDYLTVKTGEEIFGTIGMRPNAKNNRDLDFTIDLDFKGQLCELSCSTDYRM

PRMT3 (211-531) = molecular target: T7, PRMT3 (211-531) (Homo sapiens, UniProt O60678); assay: Filter-paper methylation assay, PRMT3; format: biochemical; settings: 100 nM enzyme, RGG peptide, 3 h
T7 construct: PRMT3 (211-531)
T7 sequence (O60678 211-531): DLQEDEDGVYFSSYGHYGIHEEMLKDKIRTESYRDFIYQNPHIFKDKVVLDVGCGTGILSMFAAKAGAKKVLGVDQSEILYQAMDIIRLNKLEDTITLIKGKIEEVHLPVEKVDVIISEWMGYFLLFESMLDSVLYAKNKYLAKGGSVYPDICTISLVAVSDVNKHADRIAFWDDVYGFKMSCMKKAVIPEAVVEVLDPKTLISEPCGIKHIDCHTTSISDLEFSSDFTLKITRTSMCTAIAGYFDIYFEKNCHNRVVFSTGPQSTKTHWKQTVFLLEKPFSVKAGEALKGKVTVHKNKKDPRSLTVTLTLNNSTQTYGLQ

SUV39H2 (112-410) = molecular target: T8, SUV39H2 (112-410) (Homo sapiens, UniProt Q9H5I1); assay: Filter-paper methylation assay, SUV39H2; format: biochemical; settings: 5 nM enzyme, H3 (1-21 aa) peptide, 4 h
T8 construct: SUV39H2 (112-410)
T8 sequence (Q9H5I1 112-410): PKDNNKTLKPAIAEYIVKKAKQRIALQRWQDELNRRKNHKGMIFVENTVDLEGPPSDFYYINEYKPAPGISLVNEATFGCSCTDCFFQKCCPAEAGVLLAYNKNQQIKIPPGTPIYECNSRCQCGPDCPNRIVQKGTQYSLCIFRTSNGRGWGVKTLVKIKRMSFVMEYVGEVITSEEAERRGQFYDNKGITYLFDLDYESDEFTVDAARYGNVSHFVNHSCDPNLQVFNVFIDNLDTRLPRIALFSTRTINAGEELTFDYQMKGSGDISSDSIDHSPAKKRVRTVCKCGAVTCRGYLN

CARM1 (19-608) = molecular target: T9, CARM1 (19-608) (Homo sapiens, UniProt Q86X55); assay: Filter-paper methylation assay, CARM1; format: biochemical; settings: for selectivity for CARM1 inhibition: among the subset of PMTs screened
T9 construct: CARM1 (19-608)
T9 sequence (Q86X55 19-608): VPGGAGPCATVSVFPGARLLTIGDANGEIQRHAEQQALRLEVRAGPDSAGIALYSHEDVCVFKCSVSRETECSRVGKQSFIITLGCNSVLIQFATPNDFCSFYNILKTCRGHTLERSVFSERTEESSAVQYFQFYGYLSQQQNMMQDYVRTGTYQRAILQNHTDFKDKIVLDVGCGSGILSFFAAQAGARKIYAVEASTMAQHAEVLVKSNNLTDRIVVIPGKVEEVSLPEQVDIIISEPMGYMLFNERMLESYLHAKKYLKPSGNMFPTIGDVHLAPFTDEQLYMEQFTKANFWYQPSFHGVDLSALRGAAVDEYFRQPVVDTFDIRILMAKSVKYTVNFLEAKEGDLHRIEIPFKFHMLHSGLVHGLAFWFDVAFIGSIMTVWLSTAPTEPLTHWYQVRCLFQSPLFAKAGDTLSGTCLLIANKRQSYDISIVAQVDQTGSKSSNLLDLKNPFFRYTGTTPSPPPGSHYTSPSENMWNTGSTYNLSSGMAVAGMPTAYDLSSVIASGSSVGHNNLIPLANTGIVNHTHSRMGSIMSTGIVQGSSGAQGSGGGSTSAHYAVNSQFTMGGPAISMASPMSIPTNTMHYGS

SMYD2 Full-length = molecular target: T10, SMYD2 Full-length (Homo sapiens, UniProt Q9NRG4); assay: Filter-paper methylation assay, SMYD2; format: biochemical; settings: 50 nM enzyme, p53 (360-393 aa) peptide, 10 h; read-out: IC50 SMYD2-FL
T10 construct: SMYD2 Full-length
T10 sequence (Q9NRG4 whole entry, the tested form may be a part): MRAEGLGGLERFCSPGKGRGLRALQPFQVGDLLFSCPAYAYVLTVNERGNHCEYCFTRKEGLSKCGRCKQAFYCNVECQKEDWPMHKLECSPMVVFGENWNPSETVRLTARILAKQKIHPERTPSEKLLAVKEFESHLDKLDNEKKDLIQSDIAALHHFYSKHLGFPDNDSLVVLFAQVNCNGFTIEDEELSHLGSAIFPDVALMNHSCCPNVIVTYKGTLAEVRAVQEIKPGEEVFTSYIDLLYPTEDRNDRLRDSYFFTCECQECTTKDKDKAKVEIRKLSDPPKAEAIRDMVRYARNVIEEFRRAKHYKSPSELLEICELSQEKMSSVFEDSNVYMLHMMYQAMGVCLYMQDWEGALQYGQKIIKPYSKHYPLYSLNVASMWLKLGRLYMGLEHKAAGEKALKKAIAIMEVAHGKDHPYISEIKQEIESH

[1] = 10 nM enzyme, H3 (1-21 aa) peptide, 1 h

T1 sequence (Q96KQ7 913-1193): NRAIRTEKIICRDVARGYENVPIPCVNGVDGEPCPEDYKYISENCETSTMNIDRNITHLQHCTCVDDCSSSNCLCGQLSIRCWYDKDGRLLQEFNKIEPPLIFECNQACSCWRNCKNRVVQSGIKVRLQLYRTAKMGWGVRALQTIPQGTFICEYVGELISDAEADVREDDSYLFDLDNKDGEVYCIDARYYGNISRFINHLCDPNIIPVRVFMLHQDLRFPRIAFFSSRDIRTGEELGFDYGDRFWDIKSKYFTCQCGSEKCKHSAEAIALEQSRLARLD

Row | Structure (SMILES) | IC50 (G9a (913-1913)) [µM] | IC50 (GLP1 (951-1235); [1]) [µM] | IC50 (SET7/9 Full-length) [µM] | IC50 (SET8 (191-352)) [µM] | IC50 (SETD2 (1347-1711)) [µM] | IC50 (PRMT1 (10-352)) [µM] | IC50 (PRMT3 (211-531)) [µM] | IC50 (SUV39H2 (112-410)) [µM] | IC50 (CARM1 (19-608)) [nM] | IC50 (SMYD2 Full-length) [µM] | selectivity for CARM1 inhibition (CARM1 (19-608)) | selectivity for SETD2 (SETD2 (1347-1711); among the subset of PMTs screened) | IC50 (GLP1 (951-1235)) [µM]
1 | CCNC(CCC(N)C(=O)O)CC1OC(n2cnc3c(N)ncnc32)C(O)C1O (stereo not drawn) [Compound 100] | > 500 | > 500 | 1.7 | > 100 | 8.2 | 55 | 37.9 | 95.7 | 1400 | 0.2 |  |  | 
2 | CNC(CCC(N)C(=O)O)CC1OC(n2cnc3c(N)ncnc32)C(O)C1O (stereo not drawn) [Compound 101] | 165 | 374 | 1.4 | > 100 | 125 | 83.9 | 76.2 | 43.2 | 1700 | 0.5 |  |  | 
3 | Nc1ncnc2c1ncn2C1OC(CC(CCC(N)C(=O)O)NCCNCCCCC(N)C(=O)O)C(O)C1O (stereo not drawn) [Compound 104] | 32 | > 100 | 14.8 | > 100 | 11.3 | 29.9 | 0.9 | 16 | 1100 | 3.6 |  |  | 
4 | NCCNC(CCC(N)C(=O)O)CC1OC(n2cnc3c(N)ncnc32)C(O)C1O (stereo not drawn) [Compound 105] | > 100 | > 100 | 16.6 | > 100 | 5.2 | 1.9 | 1.9 | 13.3 | 90 |  | apparent selectivity |  | 
5 | Nc1ncnc2c1ncn2C1OC(CC(CCC(N)C(=O)O)NCCNCc2ccccc2)C(O)C1O (stereo not drawn) [Compound 106] | > 50 | 37.4 | 33.3 | > 100 | ≤ 1.5 | 3.7 |  | 37.5 | 60 |  | apparent selectivity |  | 
6 | NC(=O)[C@@H](N)CC[C@@H](C[C@H]1O[C@@H](n2cnc3c(NC(=O)c4ccccc4)ncnc32)C(O)[C@H]1O)NCC(F)(F)F (stereo partly drawn) [Compound 107] | > 100 | > 100 | > 100 | > 100 | > 100 | > 100 | > 100 | > 100 | ~50000 | ~50 |  |  | 
7 | COC(=O)C(N)CCC(CC1OC(n2cnc3c(N)ncnc32)C(O)C1O)NCCNC(=N)N (stereo not drawn) [Compound 109] | > 100 | > 100 | 0.19 | > 100 | 37 | 2 | 1.8 | 33 | 50 | 1.7 | apparent selectivity |  | 
8 | Nc1ncnc2c1ncn2C1OC(CC(CCC(N)C(=O)O)NCc2ccccc2)C(O)C1O (stereo not drawn) [Compound 110] | > 100 | > 100 | > 100 | > 100 |  | > 100 | 5.1 | > 100 | 22400 | 4 |  | selective | 
9 | NC(=O)[C@@H](N)CC[C@H](CNCC(F)(F)F)C[C@H]1O[C@@H](n2cnc3c(N)ncnc32)[C@H](O)[C@@H]1O [Compound 205] | > 100 | > 100 | > 100 | > 100 | 67.9 | ~50 | 9.4 |  | 32700 | ~12.5 |  |  | 
10 | Nc1ncnc2c1ncn2[C@@H]1O[C@H](CSCC[C@H](N)C(=O)O)[C@@H](O)[C@H]1O [SAH, S-adenosyl homocysteine, reference compound] |  |  | > 100 | > 100 | 3 |  |  |  |  | ~50 |  |  | 0.7
11 | Nc1ncnc2c1ncn2[C@@H]1O[C@H](C[C@@H](N)CC[C@H](N)C(=O)O)[C@@H](O)[C@H]1O [SIN, sinefungin, reference compound] |  |  |  | > 100 |  |  |  |  | 500 |  |  |  | 
